Data: patent US20070203112A1, “BLADDER CANCER TREATMENT AND METHODS” (priority 2006, published 2007)

Tested on: DLD-1 multicell layers
Test: Penetration of EO9 through DLD-1 multicell layers (transwell apparatus, HPLC)
Assay type: in vitro ADME, human
Description: The cell line used in this study was DLD-1 human colon adenocarcinoma cells which was selected because of its ability to form tight junctions between cells thereby forming a continuous ‘barrier’ across which the drug must cross. To assess drug penetration, drugs were added to the top chamber and the concentration of drug in the bottom chamber was determined over a range of time intervals.
DLD-1 cells (2.5×10^5 in 200 μl of medium) were added to the top chamber and allowed to settle and attach to the membrane for approximately 3 hours at 37° C. in a CO2 enriched (5%) atmosphere. Once cells attached, the transwell was inserted into one well of a 24 well plate and 600 μl media was added to the bottom chamber. The apparatus was then incubated at 37° C. for 4 days with daily media changes to both the upper and lower chamber. […] For each assay, 3 transwells were removed for histological examination and accurate determination of thickness and integrity (see below for details).
Throughout all procedures, the media used was as described above except for the fact that phenol red free media was used (phenol red elutes very close to EO9 on the chromatograms). EO9 was added to the top chamber at t=0 in a volume of 100 μl and the bottom chamber contained 600 μl of media (constantly stirred). […]

## Cn1c(/C=C/CO)c(CO)c2c1C(=O)C=C(N1CC1)C2=O [EO9, 3-hydroxymethyl-5-aziridinyl-1-methyl-2-(1H-indole-4,7-dione)-propenol]
As the concentration of PG increases, 347 μM in top chamber, 10 minute intervals over 1 hour
  multicell layer penetration rate of EO9: decreases
At any of the evaluated time points of the penetration experiment
  metabolites or breakdown products observed: No obvious metabolites or breakdown products were observed
